Test results from ChEMBL document CHEMBL4043157, “Benzothiazole analogues: Synthesis, characterization, MO calculations with PM6 and DFT, in silico studies and in vitro antimalarial as DHFR inhibitors and antimicrobial activities” (Bioorg Med Chem, 2017).
≈ marks a conversion by molar mass, not a printed value. Calls of active or inactive are those of the source. The calls are words filed in the database; no cut-off is given here.

Columns and labels:
[1] = tested on: Streptococcus pyogenes; assay: Antimicrobial activity against Streptococcus pyogenes MTCC 442; assay type: functional
[2] = tested on: Staphylococcus aureus; assay: Antimicrobial activity against Staphylococcus aureus MTCC 96; assay type: functional
[3] = tested on: Pseudomonas aeruginosa; assay: Antimicrobial activity against Pseudomonas aeruginosa MTCC 1688; assay type: functional
[4] = tested on: Escherichia coli; assay: Antimicrobial activity against Escherichia coli MTCC 443; assay type: functional
[5] = Cytotoxicity in Schizosaccharomyces pombe assessed as cell viability at 2 ug/ml (reference value: 94.67 +/- 1.53%); conditions: Schizosaccharomyces pombe cells, read-out: Activity
[6] = tested on: Aspergillus clavatus; conditions: MTCC 1323
[7] = tested on: Schizosaccharomyces pombe; assay: Genotoxicity in Schizosaccharomyces pombe assessed as induction of DNA damage by measuring appearance of DNA smear DNA band at 2 to 10 ug/ml by agarose gel electrophoresis
[8] = Cytotoxicity in Schizosaccharomyces pombe assessed as cell viability at 4 ug/ml (reference value: 94.67 +/- 1.53%); conditions: Schizosaccharomyces pombe cells, read-out: Activity
[9] = tested on: Plasmodium falciparum; assay: Antimalarial activity against Plasmodium falciparum; assay type: functional
[10] = Cytotoxicity in Schizosaccharomyces pombe assessed as cell viability at 10 ug/ml (reference value: 94.67 +/- 1.53%); conditions: Schizosaccharomyces pombe cells, read-out: Activity
[11] = Cytotoxicity in Schizosaccharomyces pombe assessed as cell viability at 8 ug/ml (reference value: 94.67 +/- 1.53%); conditions: Schizosaccharomyces pombe cells, read-out: Activity
[12] = tested on: Candida albicans; assay: Antimicrobial activity against Candida albicans MTCC 227; assay type: functional
[13] = Cytotoxicity in Schizosaccharomyces pombe assessed as cell viability at 6 ug/ml (reference value: 94.67 +/- 1.53%); conditions: Schizosaccharomyces pombe cells, read-out: Activity
[14] = biological target: T1, Dihydrofolate reductase (Bos taurus, UniProt P00376); assay: Inhibition of bovine liver DHFR
T1 sequence (P00376 whole entry): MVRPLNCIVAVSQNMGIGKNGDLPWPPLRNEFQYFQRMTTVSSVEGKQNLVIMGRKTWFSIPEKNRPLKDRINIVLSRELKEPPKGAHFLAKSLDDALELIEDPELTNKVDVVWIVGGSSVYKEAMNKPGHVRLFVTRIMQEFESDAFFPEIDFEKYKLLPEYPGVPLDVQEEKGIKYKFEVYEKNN

[15] = tested on: Aspergillus clavatus; assay: Antimicrobial activity against Aspergillus clavatus MTCC 1323; assay type: functional

| Compound | MIC [1] [µM] | MIC [2] [µM] | MIC [3] [µM] | MIC [4] [µM] | viability at 2 ug/ml [5] [%] | MIC [6] | Activity [7] | viability at 4 ug/ml [8] [%] | IC50 [9] [µM] | viability at 10 ug/ml [10] [%] | viability at 8 ug/ml [11] [%] | MIC [12] | viability at 6 ug/ml [13] [%] | IC50 [14] [µM] | MIC [15] [µM] |
| --- | --- | --- | --- | --- | --- | --- | --- | --- | --- | --- | --- | --- | --- | --- | --- |
| CC1(C)S[C@@H]2[C@H](NC(=O)[C@H](N)c3ccccc3)C(=O)N2[C@H]1C(=O)O [AMPICILLIN] | 286 (≈ 99.9 µg/mL) | 716 (≈ 250 µg/mL) | 286 (≈ 99.9 µg/mL) | 286 (≈ 99.9 µg/mL) | – | – | – | – | – | – | – | – | – | – | – |
| C(=N\c1nc2ccccc2s1)/c1cccs1 | 410 (≈ 100 µg/mL) | 410 (≈ 100 µg/mL) | 410 (≈ 100 µg/mL) | 256 (≈ 62.6 µg/mL) | 86 | inactive | Toxic | 81.7 | 1.02 | 67 | 73 | 4100 µM (≈ 1000 µg/mL) | 80.7 | – | – |
| O=[N+]([O-])c1ccccc1/C=N/c1nc2ccccc2s1 | 221 (≈ 62.6 µg/mL) | 353 (≈ 100 µg/mL) | 707 (≈ 200 µg/mL) | 442 (≈ 125 µg/mL) | 84.3 | inactive | Toxic | 82 | 0.396 | 72.3 | 77 | 3530 µM (≈ 1000 µg/mL) | 79.7 | 0.0531 | – |
| C(=N\c1nc2ccccc2s1)/c1ccc[nH]1 | 440 (≈ 100 µg/mL) | 551 (≈ 125 µg/mL) | 1100 (≈ 250 µg/mL) | 881 (≈ 200 µg/mL) | 87 | – | Toxic | 82.3 | 1.91 | 69.7 | 71.7 | 2200 µM (≈ 500 µg/mL) | 74.3 | – | 4400 (≈ 1000 µg/mL) |
| O=[N+]([O-])c1cccc(/C=N/c2nc3ccccc3s2)c1 | 883 (≈ 250 µg/mL) | 707 (≈ 200 µg/mL) | 221 (≈ 62.6 µg/mL) | 883 (≈ 250 µg/mL) | 88.7 | – | Toxic | 84 | 0.201 | 70.3 | 74.7 | 1770 µM (≈ 501 µg/mL) | 79.3 | 0.0312 | 883 (≈ 250 µg/mL) |
| Clc1ccc(/C=N/c2nc3ccccc3s2)cc1 | 368 (≈ 100 µg/mL) | 460 (≈ 125 µg/mL) | 460 (≈ 125 µg/mL) | 735 (≈ 200 µg/mL) | 89.3 | – | Toxic | 87 | 0.353 | 75.3 | 78 | 3680 µM (≈ 1000 µg/mL) | 82.7 | 0.0415 | 1840 (≈ 501 µg/mL) |
| CCc1nc(N)nc(N)c1-c1ccc(Cl)cc1 [PYRIMETHAMINE] | – | – | – | – | – | – | – | – | 1 | – | – | – | – | – | – |
| Clc1ccc(/C=N/c2nc3ccccc3s2)cc1Cl | 327 (≈ 100 µg/mL) | 409 (≈ 126 µg/mL) | 409 (≈ 126 µg/mL) | 409 (≈ 126 µg/mL) | 89 | – | Toxic | 84.3 | 0.98 | 73.3 | 77 | inactive | 81 | – | 1630 (≈ 502 µg/mL) |
| O=C(O)c1cn(C2CC2)c2cc(N3CCNCC3)c(F)cc2c1=O [CIPROFLOXACIN] | 151 (≈ 50 µg/mL) | 151 (≈ 50 µg/mL) | 75 (≈ 24.9 µg/mL) | 75 (≈ 24.9 µg/mL) | – | – | – | – | – | – | – | – | – | – | – |
| Brc1ccc(/C=N/c2nc3ccccc3s2)cc1 | 633 (≈ 201 µg/mL) | 791 (≈ 251 µg/mL) | 396 (≈ 126 µg/mL) | 198 (≈ 62.8 µg/mL) | 77.3 | inactive | Toxic | 73.3 | 0.288 | 66.3 | 68.3 | inactive | 72.3 | 0.0455 | – |
| O=C(N[C@H](CO)[C@H](O)c1ccc([N+](=O)[O-])cc1)C(Cl)Cl [CHLORAMPHENICOL] | 155 (≈ 50.1 µg/mL) | 155 (≈ 50.1 µg/mL) | 155 (≈ 50.1 µg/mL) | 155 (≈ 50.1 µg/mL) | – | – | – | – | – | – | – | – | – | – | – |
| Fc1ccc(/C=N/c2nc3ccccc3s2)cc1 | 391 (≈ 100 µg/mL) | 244 (≈ 62.5 µg/mL) | 976 (≈ 250 µg/mL) | 781 (≈ 200 µg/mL) | 86.3 | – | Toxic | 81.7 | 1.48 | 71.7 | 72.3 | 1950 µM (≈ 501 µg/mL) | 73 | – | 1950 (≈ 501 µg/mL) |
| CCn1cc(C(=O)O)c(=O)c2cc(F)c(N3CCNCC3)cc21 [NORFLOXACIN] | 31 (≈ 9.9 µg/mL) | 31 (≈ 9.9 µg/mL) | 31 (≈ 9.9 µg/mL) | 31 (≈ 9.9 µg/mL) | – | – | – | – | – | – | – | – | – | – | – |
| Oc1ccc(/C=N/c2nc3ccccc3s2)cc1 | 1970 (≈ 500 µg/mL) | 984 (≈ 250 µg/mL) | 394 (≈ 100 µg/mL) | 394 (≈ 100 µg/mL) | 87 | inactive | Toxic | 75 | 0.386 | 65.3 | 68.3 | inactive | 69.3 | 0.0512 | – |
| NYSTATIN | – | – | – | – | – | 108 µM | – | – | – | – | – | 108 µM | – | – | – |
| COC1=CC(=O)C[C@@H](C)[C@]12Oc1c(Cl)c(OC)cc(OC)c1C2=O [GRISEOFULVIN] | – | – | – | – | – | – | – | – | – | – | – | 1420 µM (≈ 501 µg/mL) | – | – | 284 (≈ 100 µg/mL) |
| C(=N\c1nc2ccccc2s1)/c1ccco1 | 439 (≈ 100 µg/mL) | 877 (≈ 200 µg/mL) | 877 (≈ 200 µg/mL) | 548 (≈ 125 µg/mL) | 78.7 | inactive | Toxic | 73 | 1.86 | 61.7 | 62.3 | 4380 µM (≈ 1000 µg/mL) | 64 | – | – |
